Experimental data published in ChEMBL document CHEMBL5380876, “Non-fused imidazole-biphenyl analogs repress triple-negative breast cancer growth by mainly stabilizing the c-MYC G-quadruplex via a multi-site binding mode” (Bioorg Med Chem, 2023).
Active and inactive are the calls of the source. The calls are words filed in the database; no cut-off is given here.

Columns and labels:
[1] = tested on: Quadruplex DNA; assay: Stabilization of c-Myc G4 quadruplex DNA (unknown origin) assessed as temperature at which 50% protein unfold by circular dichroism melting assay; type: nucleic-acid assay
[2] = tested on: HeLa; assay: Cytotoxicity against human HeLa cells assessed as reduction in cell viability by CCK8 assay; type: functional, cell-based
[3] = tested on: HCC1806; assay: Cytotoxicity against human HCC1806 cells assessed as reduction in cell viability by CCK8 assay; type: functional, cell-based
[4] = tested on: KYSE-30; assay: Cytotoxicity against human KYSE-30 cells assessed as reduction in cell viability by CCK8 assay; type: functional, cell-based
[5] = tested on: Quadruplex DNA; assay: Stabilization of c-MYC G4 quadruplex DNA Pu22 (unknown origin) assessed as temperature at which 50% protein unfold by circular dichroism melting assay; type: nucleic-acid assay
[6] = tested on: Quadruplex DNA; assay: Stabilization of c-MYC G4 quadruplex DNA (unknown origin) assessed as change in temperature incubated for 2 hrs in presence of HRAS by FRET assay; type: nucleic-acid assay
[7] = tested on: Quadruplex DNA; assay: Stabilization of c-MYC G4 quadruplex DNA (unknown origin) assessed as change in temperature incubated for 2 hrs in presence of duplex DNA by FRET assay; type: nucleic-acid assay
[8] = tested on: MDA-MB-231; assay: Downregulation of c-MYC expression in human MDA-MB-231 cells measured after 24 hrs by RT-PCR analysis; type: functional, cell-based; conditions: dose 1-4 µM
[9] = tested on: MDA-MB-231; assay: Upregulation of phosphorylated ATM in human MDA-MB-231 cells at 1 to 4 uM measured after 24 hrs by Western blot analysis; type: functional, cell-based; conditions: dose 1-4 µM
[10] = tested on: MDA-MB-231; assay: Induction of cell cycle arrest in human MDA-MB-231 cells assessed as accumulation of cells at G0/G1 phase at 1 uM incubated for 24 hrs by propidium iodide staining based flow cytometry analysis (reference value: 66.35%); type: functional
[11] = tested on: MDA-MB-231; assay: Induction of cell cycle arrest in human MDA-MB-231 cells assessed as accumulation of cells at S phase at 2 uM incubated for 24 hrs by propidium iodide staining based flow cytometry analysis (reference value: 15.50%); type: functional
[12] = tested on: MDA-MB-231; assay: Induction of cell cycle arrest in human MDA-MB-231 cells assessed as accumulation of cells at sub-G1 phase at 4 uM incubated for 24 hrs by propidium iodide staining based flow cytometry analysis (reference value: 0.57%); type: functional
[13] = tested on: MDA-MB-231; assay: Induction of cell cycle arrest in human MDA-MB-231 cells assessed as accumulation of cells at G0/G1 phase at 4 uM incubated for 24 hrs by propidium iodide staining based flow cytometry analysis (reference value: 66.35%); type: functional
[14] = tested on: MDA-MB-231; assay: Induction of cell cycle arrest in human MDA-MB-231 cells assessed as accumulation of cells at G2/M phase at 4 uM incubated for 24 hrs by propidium iodide staining based flow cytometry analysis (reference value: 17.58%); type: functional
[15] = tested on: MDA-MB-231; assay: Induction of cell cycle arrest in human MDA-MB-231 cells assessed as downregulation of Cdc2 expression at 1 to 4 uM incubated for 24 hrs by Western blot analysis; type: functional, cell-based; conditions: dose 1-4 µM
[16] = tested on: MDA-MB-231; assay: Induction of apoptosis in human MDA-MB-231 cells assessed as increase in early apoptotic cells at 1 to 4 uM incubated for 24 hrs by Annexin-V FITC/PI double staining based flow cytometry analysis; type: functional, cell-based; conditions: dose 1-4 µM
[17] = tested on: MDA-MB-231; assay: Induction of autophagy in human MDA-MB-231 cells assessed as aggregation of p62 protein expression level at 1 to 4 uM incubated for 24 hrs by Western blot analysis; type: functional, cell-based; conditions: dose 1-4 µM
[18] = tested on: MDA-MB-231; assay: Induction of autophagy in human MDA-MB-231 cells assessed as conversion of LC3B-I to LC3B-II at 1 to 4 uM incubated for 24 hrs by Western blot analysis; type: functional, cell-based; conditions: dose 1-4 µM
[19] = tested on: MDA-MB-231; assay: Induction of apoptosis in human MDA-MB-231 cells assessed as caspase-3 cleavage at 1 to 4 uM incubated for 24 hrs by Western blot analysis; type: functional, cell-based; conditions: dose 1-4 µM
[20] = tested on: MDA-MB-231; assay: Induction of apoptosis in human MDA-MB-231 cells assessed as caspase-9 cleavage at 1 to 4 uM incubated for 24 hrs by Western blot analysis; type: functional, cell-based; conditions: dose 1-4 µM
[21] = tested on: MDA-MB-231; assay: Induction of apoptosis in human MDA-MB-231 cells assessed as PARP cleavage at 1 to 4 uM incubated for 24 hrs by Western blot analysis; type: functional, cell-based; conditions: dose 1-4 µM
[22] = tested on: MDA-MB-231; assay: Cytotoxicity against human MDA-MB-231 cells assessed as inhibition of cell growth at 0 to 20 uM incubated for 24 hrs by CCK-8 assay; type: functional, cell-based; conditions: MDA-MB-231, 24 h
[23] = tested on: MDA-MB-231; assay: Cytotoxicity against human MDA-MB-231 cells assessed as reduction in cell viability at 0 to 20 uM by CCK-8 assay; type: functional, cell-based; conditions: dose 0-20 µM, time 24-72 hrs, TDE = time-dependent effect
[24] = tested on: MDA-MB-231; assay: Inhibition of cell migration in human MDA-MB-231 cells assessed as reduction in migration at 1 to 4 uM measured after 24 to 48 hrs by wound healing assay; type: functional, cell-based; conditions: dose 1-4 µM, time 24-48 hrs
[25] = tested on: MDA-MB-231; assay: Inhibition of cell migration in human MDA-MB-231 cells assessed as reduction in migration at 1 to 4 uM measured after 24 hrs by transwell migration assay; type: functional, cell-based; conditions: dose 1-4 µM
[26] = Cytotoxicity against human MCF-10A cells assessed as inhibition of cell proliferation by CCK-8 assay; type: toxicity, cell-based
[27] = tested on: MDA-MB-231; assay: Antitumor activity against human MDA-MB-231 cells xenografted in BALB/c nude mouse assessed as reduction in tumor volume at 5 mg/kg, ip administered every other day for 20 days and measured every 4 days; type: functional, organism-based; conditions: time 20.0 day
[28] = tested on: MDA-MB-231; assay: Antitumor activity against human MDA-MB-231 cells xenografted in BALB/c nude mouse assessed as reduction in tumor weight at 5 mg/kg, ip administered every other day for 20 days and measured every 4 days; type: functional, organism-based; conditions: time 20.0 day
[29] = Toxicity in BALB/c mouse xenografted with human MDA-MB-231 cells assessed as discomfort at 5 mg/kg, ip administered every other day for 20 days and measured every 4 days; type: organism-based; conditions: in vivo, 480 h, time 20 day
[30] = Toxicity in BALB/c mouse xenografted with human MDA-MB-231 cells assessed as effect on kidney at 5 mg/kg, ip administered every other day for 20 days and measured every 4 days; type: organism-based; conditions: in vivo, 480 h, time 20 day
[31] = tested on: MDA-MB-231; assay: Antitumor activity against human MDA-MB-231 cells xenografted in BALB/c mouse assessed as reduction in c-MYC expression at 5 mg/kg, ip administered every other day for 20 days and measured every 4 days by immunohistochemistry analysis; type: functional, organism-based; conditions: time 20.0 day
[32] = Toxicity in BALB/c mouse xenografted with human MDA-MB-231 cells assessed as pain at 5 mg/kg, ip administered every other day for 20 days and measured every 4 days; type: organism-based; conditions: in vivo, 480 h, time 20 day
[33] = tested on: dsDNA; assay: Stabilization of duplex DNA (unknown origin) assessed as change in melting temperature by circular dichroism melting assay
[34] = tested on: Quadruplex DNA; assay: Stabilization of c-MYC G4 quadruplex DNA KRAS (unknown origin) assessed as shift in temperature at which 50% protein unfold by circular dichroism melting assay
[35] = tested on: Quadruplex DNA; assay: Stabilization of c-MYC G4 quadruplex DNA HRAS (unknown origin) assessed as change in temperature at which 50% protein unfold by circular dichroism melting assay

T [1]: 34.6 °C
T [5]: 34.6 °C
Activity [6]: Active
Activity [7]: Active
ΔTm [33]: 0 °C
ΔTm [34]: 11.2 °C
ΔTm [35]: 7.1 °C
SMILES: CN1CCN(c2ccc(-c3nc(-c4ccc(-c5ccc(C(F)(F)F)cc5)cc4)[nH]c3-c3ccc(N4CCN(C)CC4)cc3)cc2)CC1
IC50 [2]: 2690 nM
IC50 [3]: 1490 nM
IC50 [4]: 1310 nM
Activity [8]: Dose-Dependent Effect
Activity [9]: Active
Activity [10]: 74.71%
Activity [11]: 11.56%
Activity [12]: 44.98%
Activity [13]: 18.23%
Activity [14]: 30.7%
Activity [15]: Active
Activity [16]: Active
Activity [17]: Active
Activity [18]: Active
Activity [19]: Active
Activity [20]: Active
Activity [21]: Active
IC50 [22]: 1840 nM
Activity [23]: Tde
inhibition [24]: Active
inhibition [25]: Active
IC50 [26]: 8700 nM
Activity [27]: Active
Activity [28]: Active
Activity [29]: Non-Toxic
Activity [30]: Non-Toxic
Activity [31]: Active
Activity [32]: Non-Toxic
